Data on 6 compounds can be found in ChEMBL document CHEMBL3044836, “Synthesis, antimicrobial and cytotoxic activities of novel 4-trifluoromethyl-(1,2,3)-thiadiazolo-5-carboxylic acid hydrazide Schiffs bases” (Med Chem Res, 2013).

≈ marks a conversion by molar mass, not a printed value.

Common to all, as to format: functional
For experiment [1], the system named is Aspergillus niger. Put plainly: Antifungal activity against Aspergillus niger MTCC 1344 assessed as growth inhibition at 150 ug/ml after 48 hr by agar cup diffusion method. The note with it: MTCC 1344, 48 h, read-out: DIZ.
The subject of experiment [2] is Aspergillus niger. The experiment is described as follows: Antifungal activity against Aspergillus niger MTCC 1344 assessed as growth inhibition at 100 ug/ml after 48 hr by agar cup diffusion method. The note with it: MTCC 1344, 48 h, read-out: DIZ.
For experiment [3], the system named is Saccharomyces cerevisiae. Put plainly: Antifungal activity against Saccharomyces cerevisiae MTCC 36 assessed as growth inhibition at 150 ug/ml after 48 hr by agar cup diffusion method. The note with it: MTCC 36, 48 h, read-out: DIZ.
Experiment [4] deals with Saccharomyces cerevisiae. The experiment is described as follows: Antifungal activity against Saccharomyces cerevisiae MTCC 36 assessed as growth inhibition at 100 ug/ml after 48 hr by agar cup diffusion method. The note with it: MTCC 36, 48 h, read-out: DIZ.
The subject of experiment [5] is Diutina rugosa. The experiment is described as follows: Antifungal activity against Candida rugosa NCIM 3462 assessed as growth inhibition at 150 ug/ml after 48 hr by agar cup diffusion method. The note with it: NCIM 3462, 48 h, read-out: DIZ.
The subject of experiment [6] is Diutina rugosa. The experiment is described as follows: Antifungal activity against Candida rugosa NCIM 3462 assessed as growth inhibition at 100 ug/ml after 48 hr by agar cup diffusion method. The note with it: NCIM 3462, 48 h, read-out: DIZ.
In experiment [7] the test system is Candida albicans. The experiment is described as follows: Antifungal activity against Candida albicans MTCC 227 assessed as growth inhibition at 150 ug/ml after 48 hr by agar cup diffusion method. The note with it: MTCC 227, 48 h, read-out: DIZ.
The test system of experiment [8] is Candida albicans. Put plainly: Antifungal activity against Candida albicans MTCC 227 assessed as growth inhibition at 100 ug/ml after 48 hr by agar cup diffusion method. The note with it: MTCC 227, 48 h, read-out: DIZ.
Experiment [9] concerns Klebsiella pneumoniae. The experiment is described as follows: Antibacterial activity against Klebsiella pneumoniae assessed as growth inhibition by broth dilution method. Background: Broth dilution looks for growth in wells or tubes with falling amounts of substance.
The subject of experiment [10] is Pseudomonas aeruginosa. The experiment is described as follows: Antibacterial activity against Pseudomonas aeruginosa MTCC 741 assessed as growth inhibition by broth dilution method.
The subject of experiment [11] is Staphylococcus aureus. The experiment is described as follows: Antibacterial activity against Staphylococcus aureus MTCC 96 assessed as growth inhibition by broth dilution method. To be noted: read-out: MIC.
The subject of experiment [12] is Bacillus subtilis. The experiment is described as follows: Antibacterial activity against Bacillus subtilis MTCC 441 assessed as growth inhibition by broth dilution method.
For experiment [13], the system named is Staphylococcus epidermidis. The experiment is described as follows: Antibacterial activity against Staphylococcus epidermidis MTCC 435 assessed as growth inhibition by broth dilution method.
Experiment [14] concerns Escherichia coli. Put plainly: Antibacterial activity against Escherichia coli MTCC 443 assessed as growth inhibition by broth dilution method. The note with it: read-out: MIC.
In experiment [15] the test system is MCF7. Put plainly: Cytotoxicity against Homo sapiens (human) MCF7 cells assessed as cell viability at 10 uM after 48 hr by MTT assay relative to control. To be noted: MCF7, 48 h, read-out: Activity.
The test system of experiment [16] is MDA-MB-231. Put plainly: Cytotoxicity against Homo sapiens (human) MDA-MB-231 cells assessed as cell viability at 10 uM after 48 hr by MTT assay relative to control. The note with it: MDA-MB-231, 48 h, read-out: Activity. (In general: Formazan colour is commonly taken as a measure of viable cells.)

Consider `C/C(=N\NC(=O)c1snnc1C(F)(F)F)c1ccc([N+](=O)[O-])cc1`, for which the zone of inhibition at 150 µg/mL in experiment [1], in [3], in [5] and in experiment [7] was 0 mm in each case. In addition, the zone of inhibition at 100 µg/mL in experiment [2], in experiment [4], in experiment [6] and in [8] was 0 mm in each case. Moreover, the MIC in [9] was > 150 µg/mL; in experiment [10] (read-out: MIC) it was 150 µg/mL (≈ 417 µM); in experiment [11], 150 µg/mL (≈ 417 µM); in [12], > 150 µg/mL; in [13], > 150 µg/mL; in experiment [14] it was 150 µg/mL (≈ 417 µM).

For the compound `C/C(=N\NC(=O)c1snnc1C(F)(F)F)c1ccc(Br)cc1Br`, the viability at 10 µM in experiment [15] turned out to be 123%; in experiment [16], 94.7%. For the same compound, the zone of inhibition at 150 µg/mL stood at 0 mm in [1], 0 mm in [3], 0 mm in [5] and 15 mm in experiment [7]. Besides, the zone of inhibition at 100 µg/mL in [2] came out at 0 mm; in experiment [4], 0 mm; in [6], 0 mm; in [8] it was 11 mm. For the same compound, the MIC in experiment [9] (read-out: MIC), in experiment [10] (read-out: MIC), in experiment [11], in experiment [12] (read-out: MIC), in [13] (read-out: MIC) and in [14] was 150 µg/mL (≈ 318 µM) each time.

Turning to `CC(C)=NNC(=O)c1snnc1C(F)(F)F`, the zone of inhibition at 150 µg/mL in experiment [1], in [3], in experiment [5] and in experiment [7] was 0 mm each time. The zone of inhibition at 100 µg/mL in experiment [2], in experiment [4], in experiment [6] and in [8] was 0 mm in each case. For the same compound, the MIC in [9] (read-out: MIC), in experiment [10] (read-out: MIC), in experiment [11], in experiment [12] (read-out: MIC), in [13] (read-out: MIC) and in experiment [14] was 150 µg/mL (≈ 595 µM) each time.

For `O=C(NN=C1CCCC1)c1snnc1C(F)(F)F`, the viability at 10 µM in experiment [15] came out at 97.9%; in experiment [16], 84.2%. Besides, the zone of inhibition at 150 µg/mL in [1], in experiment [3], in [5] and in experiment [7] was 0 mm each time. Further, the zone of inhibition at 100 µg/mL in experiment [2], in [4], in experiment [6] and in experiment [8] was 0 mm in each case. The MIC was 150 µg/mL (≈ 539 µM) in [9] (read-out: MIC); 150 µg/mL (≈ 539 µM) in [10] (read-out: MIC); 150 µg/mL (≈ 539 µM) in [11]; 150 µg/mL (≈ 539 µM) in experiment [12] (read-out: MIC); > 150 µg/mL in [13]; 150 µg/mL (≈ 539 µM) in experiment [14].

Regarding `O=C(NN=C1CCCCC1)c1snnc1C(F)(F)F`, the figures for the viability at 10 µM in experiment [15] and in experiment [16] were 97.2% and 78.6%, respectively. Also, the zone of inhibition at 150 µg/mL in [1] was 0 mm; in experiment [3], 0 mm; in experiment [5] it was 0 mm; in [7], 7 mm. The zone of inhibition at 100 µg/mL in experiment [2], in [4], in experiment [6] and in experiment [8] was 0 mm in each case. For the same compound, the MIC in experiment [9] (read-out: MIC) was 150 µg/mL (≈ 513 µM); in experiment [10] it was > 150 µg/mL; in experiment [11], 150 µg/mL (≈ 513 µM); in experiment [12] (read-out: MIC), 150 µg/mL (≈ 513 µM); in experiment [13] (read-out: MIC), 150 µg/mL (≈ 513 µM); in experiment [14], 150 µg/mL (≈ 513 µM).

For the compound `O=C(NN=C1CCCCCC1)c1snnc1C(F)(F)F`, the zone of inhibition at 150 µg/mL in [1], in experiment [3], in experiment [5] and in experiment [7] was 0 mm in each case. For the same compound, the zone of inhibition at 100 µg/mL in experiment [2], in experiment [4], in [6] and in experiment [8] was 0 mm throughout. Further, the MIC in experiment [9] (read-out: MIC) was 150 µg/mL (≈ 490 µM); in experiment [10] (read-out: MIC), 150 µg/mL (≈ 490 µM); in experiment [11] it was 150 µg/mL (≈ 490 µM); in experiment [12] it was > 150 µg/mL; in experiment [13], > 150 µg/mL; in experiment [14], 150 µg/mL (≈ 490 µM).

What is called MIC is the smallest concentration in the dilution series that meets the test's criterion for growth inhibition.
